Results taken from patent US11186560B2, “Arthropod repellent chemicals” (The Regents of the University of California, priority 2015, dated 2021).

How the values were obtained:
[1] = test system: Drosophila melanogaster; experiment: Drosophila melanogaster 2-choice trap assay; type: in vivo; conditions: compounds at 5% concentration; 48 hours; negative P.I. indicates repellency
Protocol: In a second type of assay, a Drosophila melanogaster 2-choice trap assay as described previously^4,6 was used with minor modifications. Traps were made with two 1.5 ml microcentrifuge tubes (USA Scientific) and 200 microliter pipette tips (USA Scientific), each cap contained standard cornmeal medium. T-shape piece of filter paper (Whatman #1) was impregnated with 5 ul of acetone (control) or 5 microliters of 5% test odor, diluted in acetone. Traps were placed within a petri dish (100×15 mm, Fisher) containing 10 ml of 1% agarose to provide moisture. Ten wild-type Drosophila melanogaster flies 4-7 days old were used per trial, which lasted 48 hours by which time point nearly all flies in the assays had made a choice and were counted. Preference Index (P.I.)=(number of flies in treated trap−number in control trap)/(number of flies in treated+control traps).

[2] = test system: Aedes aegypti; experiment: Aedes aegypti 2-choice landing assay (two-choice heat assay); type: in vivo; conditions: compounds at 3% concentration; female Aedes aegypti; two heat sources at 37 C. as attractants; 5 minute trial
Protocol: In order to test the compounds in mosquitoes, a Two-choice heat assay in Aedes aegypti was performed. A pair of heat sources were prepared using 2 hand warmers fitted into a 100×15 mm petri dish base and covered with 15×15 cm polyester netting secured round the petri dish by a pair or 8 inch plastic cable ties (Gardner Bender, Milwaukee, Wis.) coupling. Excess netting material was trimmed off round the edges of the petri dish. The treatment chemical 500 μl was added at 3% concentration directly onto the netting and the two assembled dishes were placed inside a cage of 20 female A. aegypti mosquitoes. Total numbers of mosquito landings on the net covering of each dish were counted during the assay from video recordings of the 5 minute trial. The solvent and DEET positions were alternated between runs.

[3] = test system: Aedes aegypti; experiment: Aedes aegypti 1-choice landing assay (heat source attractant); type: in vivo; conditions: compounds at 3% concentration; female Aedes aegypti; one heat source at 37 C. as attractant
[4] = test system: Drosophila melanogaster; experiment: Drosophila melanogaster T-maze assay; type: in vivo; conditions: compounds at 5% concentration; average of 3 trials; negative P.I. indicates repellency
Protocol: T-maze assay was used to test selected compounds. 4-7 day old starved wild-type flies of Drosophila melanogaster (20 males plus 20 females/trial) were tested. Under a chemical hood, 10 ul of solvent and 10 ul of test chemical were applied onto filter paper placed in control tubes and test tubes. The flies were loaded into the elevator of a T-maze apparatus and lowered into position where they could make a choice between the solvent tube and the test chemical tube. After allowing flies to make choice for 1 minute in dark, the elevator was closed and number of flies in each tube was counted. Preference Index (P.I.)=(#flies in test arm−#flies in control arm)/(#flies in test arm+#flies in control arm). The results presented in Table 2 report the average Preference Index from 3 independent trials.

[5] = test system: Aedes aegypti females; experiment: Modified arm-in-cage assay; type: in vivo; conditions: 3% 4-methyl piperidine on filter paper adjoining netted landing window of glove
Excerpt: FIG. […] (2a) Control and 4-MP treated gloves; (2b) Mean numbers of landings within minutes 2-5 of the assay. N=4 trials, ˜40 mosquitoes/trial.
The identification of these compounds started with understanding the biochemical, spacial charge density and other biochemical and physical factors aside from straight chemical structure for imparting the activity with existing DEET-like chemical structure and are therefore studying just DEET-like properties there were limits in finding completely novel classes of repellents that are not structurally related to DEET. Additional properties were then added. […] Olfactory avoidance to DEET is active over a short range (˜1 cm) and mosquitoes are not repelled beyond the immediate vicinity. Therefore, a modified arm-in-cage assay was developed where a low concentration of 4-MP can be applied to filter paper pieces adjoining the netted landing window of the glove (FIG. 2a). […]

[6] = test system: mosquitoes; conditions: cited from earlier work

| Compound | P.I. (mean preference index) [2] | Average % Repellency [3] [%] | P.I. (mean preference index) [4] | also measured |
| --- | --- | --- | --- | --- |
| COC(=O)Cc1ccc(C(C)(C)C)cc1 [methyl 2-(4-tert-butylphenyl)acetate] |  |  |  | P.I. (mean preference index) [1]: −0.14 |
| CC1CCCO1 (centres unmarked) [2-methyl tetrahydrofuran] | −0.1815 | 29.78 |  |  |
| CCCCC1CO1 (centres unmarked) [1,2-Epoxyhexane] |  |  | −0.2 |  |
| CC1CCNCC1 [4-methyl piperidine] |  |  |  | Repellency from skin-exposed net window [5]: effectively repel mosquitoes |
| CCN1CCCC1=O [1-Ethyl-2-pyrrolidone] |  |  |  | P.I. (mean preference index) [1]: −0.12 |
| Isopropyl Quinoline |  | 96.36 | −0.17 |  |
| c1ccc2c(c1)CCCN2 [1,2,3,4-Tetrahydroquinoline] | −0.9965 | 99.82 |  | P.I. (mean preference index) [1]: −0.74 |
| CC1=CCC=CC1 [1-methyl-1,4-cyclohexadiene] | −0.1584 | 27.01 | −0.76 |  |
| CC1=C(O)C(=O)C(C)O1 (centres unmarked) [4-Hydroxy-2,5-Dimethyl-3(2H)-Furanone] |  |  |  | P.I. (mean preference index) [1]: −0.24 |
| CC1CC=CCC1 (centres unmarked) [4-methyl cyclohexene] | −0.8265 | 90.39 |  |  |
| CC1COC(C)(C)O1 (centres unmarked) [Propylene glycol acetone ketal] |  |  | −0.09 |  |
| CC(C)CC1OCC(C)O1 (centres unmarked) [2-Isobutyl-4-methyl-1,3-dioxolane] | −0.2189 | 35.92 | −0.3 |  |
| CCC1=C(O)C(=O)CC1 [Ethyl cyclopentenolone] | −0.7423 | 77.44 |  |  |
| C1=COCCC1 [Dihydropyran] | −0.2819 |  |  |  |
| CCN(CC)C(=O)c1cccc(C)c1 [DEET, N,N-Diethyl-m-toluamide] |  |  |  | Range over which olfactory avoidance is active [6]: ~1 cm |
| C1=COCCC1 [3.4-Dihydro-2H-pyran, 3,4-Dihydro-2H-pyran] |  |  | −0.88 |  |
